In this assay the target is Granzyme B (human lymphocytes) (Homo sapiens (Human), UniProt P10144). In words: human Granzyme B biochemical assay. The settings on record: Granzyme B (human lymphocytes) 5 nM, substrate Ac-IETD-AFC 200 μM, Cpd incubation with enzyme 30 mins, 22° C., read time 60 mins; read-out: IC50. The method, boiled down: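 Enzyme (10 nM working stock, assay buffer with 0.1% BSA) pre-incubated with compound for 30 min at 22 °C, then Ac-IETD-AFC (800 µM working stock) added for 60 min at 22 °C in the dark. Fluorescence read at Ex 400/Em 505 nm; 8-point 3.16-fold series (40 µM top working stock); IC50 from % inhibition versus standard-inhibitor and DMSO controls.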
Chain of Granzyme B (human lymphocytes) (P10144 21-247): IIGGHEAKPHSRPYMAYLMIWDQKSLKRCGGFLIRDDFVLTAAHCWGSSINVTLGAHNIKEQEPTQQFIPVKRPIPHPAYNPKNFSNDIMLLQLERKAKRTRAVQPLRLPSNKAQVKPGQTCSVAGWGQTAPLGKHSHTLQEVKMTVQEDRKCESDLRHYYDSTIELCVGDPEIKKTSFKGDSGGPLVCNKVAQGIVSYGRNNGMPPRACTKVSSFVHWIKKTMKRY

Take `CC(C)[C@H](NC(=O)c1ccncc1)C(=O)N[C@H]1CCc2cccc3c2N(C1=O)[C@H](C(=O)NCc1c[nH]nn1)C3` [Compound C071, (2S,5S)-5-{(S)-3-Methyl-2-[(pyridine-4-carbonyl)-amino]-butyrylamino}-4-oxo-1,2,4,5,6,7-hexahydro-azepino[3,2,1-hi]indole-2-carboxylic acid (1H-[1,2,3]triazol-4-ylmethyl)-amide]: the concentration for half-maximal inhibition (IC50) (in general, the point on the concentration scale where inhibition reaches its midpoint) lay in the range of 0.001 to 0.3 µM.

For the molecule `O=C(N[C@H](C(=O)N[C@H]1CCc2cccc3c2N(C1=O)[C@H](C(=O)NCc1c[nH]nn1)C3)C1CCC1)c1ccccc1` [Compound C084, (2S,5S)-5-((S)-2-Benzoylamino-2-cyclobutyl-acetylamino)-4-oxo-1,2,4,5,6,7-hexahydro-azepino[3,2,1-hi]indole-2-carboxylic acid (1H-[1,2,3]triazol-4-ylmethyl)-amide], the concentration for half-maximal inhibition (IC50) is 0.001 to 0.3 µM.

Turning to `CC[C@H](C)[C@H](NC(=O)COCCF)C(=O)N[C@H]1CCc2cccc3c2N(C1=O)[C@H](C(=O)NCc1cnco1)C3` [Compound C111, (2S,5S)-5-{(2S,3S)-2-[2-(2-Fluoro-ethoxy)-acetylamino]-3-methyl-pentanoylamino}-4-oxo-1,2,4,5,6,7-hexahydro-azepino[3,2,1-hi]indole-2-carboxylic acid (oxazol-5-ylmethyl)-amide], the IC50 was over 5 µM.

On to `CC[C@H](C)[C@H](NC(=O)COCCF)C(=O)N[C@H]1CCc2cccc3c2N(C1=O)[C@H](C(=O)NCCc1cnn[nH]1)C3` [Compound C120, (2S,5S)-5-{(2S,3S)-2-[2-(2-Fluoro-ethoxy)-acetylamino]-3-methyl-pentanoylamino}-4-oxo-1,2,4,5,6,7-hexahydro-azepino[3,2,1-hi]indole-2-carboxylic acid [2-(3H-[1,2,3]triazol-4-yl)-ethyl]-amide], for which the IC50 is over 5 µM.

Regarding `CC(C)[C@H](NC(=O)c1ccc(F)cc1)C(=O)N[C@H]1CCc2cccc3c2N(C1=O)[C@H](C(=O)NCc1c[nH]nn1)C3` [Compound C047, (2S,5S)-5-[(S)-2-(4-Fluoro-benzoylamino)-3-methyl-butyrylamino]-4-oxo-1,2,4,5,6,7-hexahydro-azepino[3,2,1-hi]indole-2-carboxylic acid (1H-[1,2,3]triazol-4-ylmethyl)-amide], the IC50 was 0.301 to 1 µM.

In the case of `CC(=O)N[C@@H](Cc1ccc(F)cc1)C(=O)N[C@H]1CCc2cccc3c2N(C1=O)[C@H](C(=O)NCc1c[nH]nn1)C3` [Compound C033, (2S,5S)-5-[(S)-2-Acetylamino-3-(4-fluoro-phenyl)-propionylamino]-4-oxo-1,2,4,5,6,7-hexahydro-azepino[3,2,1-hi]indole-2-carboxylic acid (1H-[1,2,3]triazol-4-ylmethyl)-amide], the IC50 was 1 to 5 µM.

Regarding `COC(=O)C[C@H](NC(=O)[C@@H]1Cc2cccc3c2N1C(=O)[C@@H](NC(=O)[C@@H](NC(C)=O)C(C)C)CC3)C(=O)OC` [Compound C093, (S)-2-{[(2S,5S)-5-((S)-2-Acetylamino-3-methyl-butyrylamino)-4-oxo-1,2,4,5,6,7-hexahydro-azepino[3,2,1-hi]indole-2-carbonyl]-amino}-succinic acid dimethyl ester], the IC50 was over 5 µM.

Regarding `CC[C@H](C)[C@H](NC(=O)COCCF)C(=O)N[C@H]1CCc2cccc3c2N(C1=O)[C@H](C(=O)NCc1cscn1)C3` [Compound C115, (2S,5S)-5-{(2S,3S)-2-[2-(2-Fluoro-ethoxy)-acetylamino]-3-methyl-pentanoylamino}-4-oxo-1,2,4,5,6,7-hexahydro-azepino[3,2,1-hi]indole-2-carboxylic acid (thiazol-4-ylmethyl)-amide], the half-inhibitory concentration (IC50) is over 5 µM.

Consider `COC(=O)[C@@H](C)NC(=O)[C@@H]1Cc2cccc3c2N1C(=O)[C@@H](NC(=O)[C@@H](NC(C)=O)C(C)C)CC3` [Compound C088, (R)-2-{[(2S,5S)-5-((S)-2-Acetylamino-3-methyl-butyrylamino)-4-oxo-1,2,4,5,6,7-hexahydro-azepino[3,2,1-hi]indole-2-carbonyl]-amino}-propionicacid methyl ester], for which the IC50 was over 5 µM.

Turning to `O=C(Cc1csc2ccccc12)N[C@H](C(=O)N[C@H]1CCc2cccc3c2N(C1=O)[C@H](C(=O)NCc1c[nH]nn1)C3)C1CCCCC1` [Compound C078, (2S,5S)-5-[(S)-2-(2-Benzo[b]thiophen-3-yl-acetylamino)-2-cyclohexyl-acetylamino]-4-oxo-1,2,4,5,6,7-hexahydro-azepino[3,2,1-hi]indole-2-carboxylic acid (1H-[1,2,3]triazol-4-ylmethyl)-amide], the IC50 lay within 0.301 to 1 µM.

`CC(=O)N[C@@H](C)C(=O)N[C@H]1CCc2cccc3c2N(C1=O)[C@H](C(=O)NCc1c[nH]nn1)C3` [Compound C024, (2S,5S)-5-((S)-2-Acetylamino-propionylamino)-4-oxo-1,2,4,5,6,7-hexahydro-azepino[3,2,1-hi]indole-2-carboxylic acid (1H-[1,2,3]triazol-4-ylmethyl)-amide]: the IC50 is over 5 µM.

For the molecule `Cc1cccc(C(=O)N[C@H](C(=O)N[C@H]2CCc3cccc4c3N(C2=O)[C@H](C(=O)NCc2c[nH]nn2)C4)C(C)C)c1` [Compound C051, (2S,5S)-5-[(S)-3-Methyl-2-(3-methyl-benzoylamino)-butyrylamino]-4-oxo-1,2,4,5,6,7-hexahydro-azepino[3,2,1-hi]indole-2-carboxylic acid (1H-[1,2,3]triazol-4-ylmethyl)-amide], the half-inhibitory concentration (IC50) fell in the range of 0.001 to 0.3 µM.

As for `CC(C)C[C@H](NC(=O)c1ccccc1)C(=O)N[C@H]1CCc2cccc3c2N(C1=O)[C@H](C(=O)NCc1c[nH]nn1)C3` [Compound C038, (2S,5S)-5-((S)-2-Benzoylamino-4-methyl-pentanoylamino)-4-oxo-1,2,4,5,6,7-hexahydro-azepino[3,2,1-hi]indole-2-carboxylic acid (1H-[1,2,3]triazol-4-ylmethyl)-amide], the IC50 was in the range of 0.301 to 1 µM.

Regarding `CC[C@H](C)[C@H](NC(=O)COCCF)C(=O)N[C@H]1CCc2cccc3c2N(C1=O)[C@H](C(=O)NCc1ncn[nH]1)C3` [Compound C163, (2S,5S)-5-{(2S,3S)-2-[2-(2-Fluoro-ethoxy)-acetylamino]-3-methyl-pentanoylamino}-4-oxo-1,2,4,5,6,7-hexahydro-azepino[3,2,1-hi]indole-2-carboxylic acid (2H-[1,2,4]triazol-3-ylmethyl)-amide], the IC50 is over 5 µM.

In the case of `O=C(N[C@H](C(=O)N[C@H]1CCc2cccc3c2N(C1=O)[C@H](C(=O)NCc1c[nH]nn1)C3)C1CC1)c1ccccc1` [Compound C082, (2S,5S)-5-((S)-2-Benzoylamino-2-cyclopropyl-acetylamino)-4-oxo-1,2,4,5,6,7-hexahydro-azepino[3,2,1-hi]indole-2-carboxylic acid (1H-[1,2,3]triazol-4-ylmethyl)-amide], the IC50 was in the range of 0.301 to 1 µM.

In the case of `COC(=O)CNC(=O)[C@@H]1Cc2cccc3c2N1C(=O)[C@@H](NC(=O)[C@@H](NC(C)=O)C(C)C)CC3` [Compound C086, {[(2S,5S)-5-((S)-2-Acetylamino-3-methyl-butyrylamino)-4-oxo-1,2,4,5,6,7-hexahydro-azepino[3,2,1-hi]indole-2-carbonyl]-amino}-acetic acid methyl ester], the IC50 is over 5 µM.

As to `COC(=O)[C@H](CO)NC(=O)[C@@H]1Cc2cccc3c2N1C(=O)[C@@H](NC(=O)[C@@H](NC(C)=O)C(C)C)CC3` [Compound C091, (S)-2-{[(2S,5S)-5-((S)-2-Acetylamino-3-methyl-butyrylamino)-4-oxo-1,2,4,5,6,7-hexahydro-azepino[3,2,1-hi]indole-2-carbonyl]-amino}-3-hydroxy-propionic acid methyl ester], the IC50 is over 5 µM.

Take `CC[C@H](C)[C@H](NC(=O)COCCF)C(=O)N[C@H]1CCc2cccc3c2N(C1=O)[C@H](C(=O)NCc1cc[nH]c1)C3` [Compound C107, (2S,5S)-5-{(2S,3S)-2-[2-(2-Fluoro-ethoxy)-acetylamino]-3-methyl-pentanoylamino}-4-oxo-1,2,4,5,6,7-hexahydro-azepino[3,2,1-hi]indole-2-carboxylic acid (1H-pyrrol-3-ylmethyl)-amide]: the IC50 was over 5 µM.

As for `CC(=O)N[C@H](C(=O)N[C@H]1CCc2cccc3c2N(C1=O)[C@H](C(=O)N[C@H](C)C(=O)O)C3)C(C)C` [Compound C087, (R)-2-{[(2S,5S)-5-((S)-2-Acetylamino-3-methyl-butyrylamino)-4-oxo-1,2,4,5,6,7-hexahydro-azepino[3,2,1-hi]indole-2-carbonyl]-amino}-propionicacid], the IC50 is over 5 µM.

With `CC(=O)N[C@H](C(=O)N[C@H]1CCc2cccc3c2N(C1=O)[C@H](C(=O)N[C@@H](CCC(=O)O)C(=O)O)C3)C(C)C` [Compound C094, (S)-2-{[(2S,5S)-5-((S)-2-Acetylamino-3-methyl-butyrylamino)-4-oxo-1,2,4,5,6,7-hexahydro-azepino[3,2,1-hi]indole-2-carbonyl]-amino}-pentanedioic acid], the IC50 was over 5 µM.

Turning to `O=C(Cc1ccccc1)N[C@H](C(=O)N[C@H]1CCc2cccc3c2N(C1=O)[C@H](C(=O)NCc1c[nH]nn1)C3)c1ccccc1` [Compound C020, (2S,5S)-4-Oxo-5-((S)-2-phenyl-2-phenylacetylamino-acetylamino)-1,2,4,5,6,7-hexahydro-azepino[3,2,1-hi]indole-2-carboxylic acid (1H-[1,2,3]triazol-4-ylmethyl)-amide], the IC50 is over 5 µM.

In the case of `CC[C@H](C)[C@H](NC(=O)COCCF)C(=O)N[C@H]1CCc2cccc3c2N(C1=O)[C@H](C(=O)NCc1ccccn1)C3` [Compound C121, (2S,5S)-5-{(2S,3S)-2-[2-(2-Fluoro-ethoxy)-acetylamino]-3-methyl-pentanoylamino}-4-oxo-1,2,4,5,6,7-hexahydro-azepino[3,2,1-hi]indole-2-carboxylic acid (pyridin-2-ylmethyl)-amide], the IC50 is over 5 µM.

The values are drawn from patent US11667645B2, “Granzyme B directed imaging and therapy” (CytoSite Biopharma Inc., priority 2018, dated 2023).
